# Experimental data reported in patent publication US20080200538A1, “Inhibition of Monocyte Survival, Differentiation, or Proliferation” (The Ohio State University Research Foundation, priority 2005, published 2008).
# System: THP-1 cells
# Assay: Cell survival and apoptosis by calcein AM/PI staining
# Format: cell-based, human
# Description: FIG. 2. Apigenin induces cell death in monocytic leukemia cells. THP-1 and U937 leukemia cells were treated for various lengths of time with 50 μM apigenin or left untreated (NT) and stained with calcein AM and PI as described in Material and Methods to evaluate the percentage of cell survival. (A) THP cells after 12 h cells treated with 50 μM apigenin or with DMSO (NT). (B) The percentage of cell survival represented by means ±SEM (N=3).
# FIG. 4. Caspase-3 activation is required for apigenin-induced apoptosis. THP-1 cells were treated for 12 h with 50 μM apigenin alone or pretreated with 20 μM DEVD-FMK for 1 h prior to the addition of apigenin. (A) Cells were then stained with calcein AM and 24 PI and the percentage of apoptotic cells was determined. (B) Lysates from cells treated as described above were used to determined caspase-3 activity by the DEVD-AFC assay. All data represents means ±SEM (N=5).
# FIG. 7. Apigenin induced p38 activation is not required for apoptosis. A. Cells were pretreated for 1 h prior to addition of 50 μM apigenin or DMSO (−) with 10 or 25 μM concentrations of SB203580 or DMSO (−) for 12 h. The percentage of apoptotic cells was determined by calcein AM with PI stained cells. Data represents means ±SEM (N=5 p>0.05). B. Lysates from the same treatments were used to determined caspase-3 activity by the DEVD-AFC assay. Data represents means ±SEM (N=5 p>0.05).
# To investigate apoptosis, cells were plated at a density of 1×10^6 cells/well. After treatment, cells were collected and washed in PBS. Cells were then incubated in RPMI (no phenol red) and 1 μg/ml calcein AM for 30 min and 5×10−2 ng/ml propidium iodide (PI) for 5 min. Cells were washed twice and resuspended in PBS. Cells were viewed using a fluorescent microscope (Olympus, Melville, N.Y.). At least 200 cells were counted. Cells calcein AM positive (green) in the absence of PI (red) were considered alive while cells undergoing apoptosis are green with red. Number of green cells or green with red cells was counted over total number of cells (green alone and green with red) to express cell survival or apoptotic cell percentage respectively.
compound,measurement,setting,value
O=c1cc(-c2ccc(O)cc2)oc2cc(O)cc(O)c12 [apigenin],viability at 50 µM,"Homo sapiens, THP-1, 12 h, read-out: cell viability (survival)",30%
same,apoptotic cells,"THP-1, 50 μM apigenin alone, 12 h",70%
same,cell survival,"THP-1, 50 μM, 9 h, reduced to",80%
